Laboratory results reported in PubChem BioAssay (NCI).
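Results reflect a 48-hour exposure of cells in 96-well plates to compound at five concentrations. Abbreviation: GI50, concentration required for 50% inhibition of growth. At the TGI there is no net growth.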

Columns and labels:
Assay in all cases: NCI tumour cell line growth inhibition, 48 h
SF-295 CNS = system: SF-295 CNS
T-47D breast = system: T-47D breast
OVCAR-4 ovarian = system: OVCAR-4 ovarian
SK-OV-3 ovarian = system: SK-OV-3 ovarian
SR leukemia = system: SR leukemia
ACHN renal = system: ACHN renal
HCC-2998 colon = system: HCC-2998 colon
HL-60(TB) leukemia = system: HL-60(TB) leukemia
SK-MEL-2 melanoma = system: SK-MEL-2 melanoma
NCI/ADR-RES ovarian = system: NCI/ADR-RES ovarian

SMILES	GI50 (SF-295 CNS) [µM]	TGI (SF-295 CNS) [µM]	GI50 (T-47D breast) [µM]	TGI (T-47D breast) [µM]	GI50 (OVCAR-4 ovarian) [µM]	TGI (OVCAR-4 ovarian) [µM]	GI50 (SK-OV-3 ovarian) [µM]	TGI (SK-OV-3 ovarian) [µM]	GI50 (SR leukemia) [µM]	TGI (SR leukemia) [µM]	GI50 (ACHN renal) [µM]	TGI (ACHN renal) [µM]	GI50 (HCC-2998 colon) [µM]	TGI (HCC-2998 colon) [µM]	GI50 (HL-60(TB) leukemia) [µM]	TGI (HL-60(TB) leukemia) [µM]	GI50 (SK-MEL-2 melanoma) [µM]	TGI (SK-MEL-2 melanoma) [µM]	GI50 (NCI/ADR-RES ovarian) [µM]	TGI (NCI/ADR-RES ovarian) [µM]
COc1c2ccccc2c(OC)c2[nH]c(=O)ccc12	1.44	3.29	21.5	> 100	11.1	> 100	65.1	> 100	6.61	> 100	7.92	> 100	13.2	> 58.8	12.4	> 92.4	4.92	> 75.8	6.51	> 100
O=C1NC(=NCc2ccccc2)S/C1=C\c1ccc2ncccc2c1	> 25	> 25	> 25	> 25	> 25	> 25	> 25	> 25	1.05	> 25	> 25	> 25	> 25	> 25	> 25	> 25	> 25	> 25	> 25	> 25
COC(=O)/C=C/c1cc(OC(C)=O)c2c(c1)[C@@H](C(=O)OC)[C@H](c1ccc(OC(C)=O)c(OC(C)=O)c1)O2	0.285	11.4	0.452	67.3	0.34	38.2	0.417	41.9	0.0281	> 49.6	0.0705	52.5	0.514	22	0.0288	0.0934	0.268	70	0.0423	1.93
CN1CCN(C(=O)COc2ccc(C34CC5CC(CC(C5)C3)C4)cc2)CC1	13.5	27.8	12.9	39.2	20.8	76.9	14	30.4	4.62	97.4	17.2	39.5	13.8	27.4	4.7	23.2	15.5	30.4	21.7	84.4
COc1ccc2ncnc(Nc3ccc(OCc4ccccc4)cc3)c2c1	5.15	> 18.7	5.37	> 25	7.38	> 25	3.41	> 23.6	11.6	> 25	5.88	> 25	6.42	18	7.06	16.8	9.97	> 25	7.56	> 25
COc1cc2c(cc1OC)-c1cc(OC)c(OC)cc1C(CN(C)C)C2 (stereo not given)	> 10	> 10	> 10	> 10	> 10	> 10	> 10	> 10	> 10	> 10	> 10	> 10	> 10	> 10	> 10	> 10	> 10	> 10	> 10	> 10
O=C(NC1CCCCC1)NS(=O)(=O)c1ccc(N2N=C3c4ccccc4CC3C2c2ccc(Cl)cc2)cc1 (stereo not given)	15.9	43.9	22.6	> 100	38.5	> 100	24.5	> 100	0.406	1.85	13.4	31.9	3.56	7.53	15.8	36.6	24.4	80.4	20.6	69.6
c1ccc(-c2n(Cc3ccc4ccccc4n3)cc[n+]2Cc2ccc3ccccc3c2)cc1	1.73	4.73	0.378	4.36	0.366	6.13	1.8	4.69	0.573	3.11	3.35	11.4	0.767	2.24	0.256	0.88	1.2	3.12	19.5	66.8
C=C1C[C@H](O)[C@H](Br)C(C)(C)[C@@]12CCC(C)=C(Cl)C2	0.105	1.69	0.15	11.3	0.155	7.81	0.297	6.41	0.237	11.1	0.369	10.7	0.568	14	0.206	0.761	0.422	2.61	0.247	11.2
C[C@@H]1CC[C@H]2C(C)(C)[C@H]3C[C@@]12CC[C@@]3(C)O		> 100		> 100		> 100		> 100		48.6		> 100		> 100		61.9		> 100		> 100
NC(=S)N/N=C\c1nccc2c(C(F)(F)F)cccc12	0.341	10.3	0.335	25.7	0.162	24.8	0.17	5.89	0.0997	> 37	0.226	5.58	0.411	15.4	0.286	1.19	0.461	8.34	0.349	20.4
CC[C@@H](c1ccc(O)c(O)c1)[C@@H](CC)c1ccc(O)c(O)c1	27.4	87	2.48	7.96	4.6	39.3	29.4	77.9	4.17	> 100	1.94	4.03	17.4	33.1	2.66	6.21	30.7	77.8	10.1	62.7
COC(=O)[C@]12CC[C@@H](C)[C@H](C)[C@@H]1C1=CC[C@@H]3[C@@]4(C)C[C@@H](O)[C@H](O)[C@@](C)(CO)[C@@H]4[C@H](O)C[C@@]3(C)[C@]1(C)CC2	15	35.4	7.23	29.1	12.1	32.8	19.4	33.5	11.9	40.8	7.8	21.6	14.6	31.2	9.1	30.3	22.6	48.3	15.5	35.1
COc1ccc(CN2C(=O)C(Cl)=C(Nc3cccc(C(F)(F)F)c3)C2=O)cc1	3.19	65.3	3.88	21.5	4.74	30.6	8.67	62.2	2.77	8.88	6.71	20.5	8.46	25.9	2.56	19.5	12.3	27.3	7.43	45.6
COc1cc(-c2nc3sccn3c2-c2ccnc(NCCNS(=O)(=O)c3ccc(F)cc3)n2)ccc1F	2.87	> 100	0.634	35.9	3.4	> 100	3.26	> 100	2.51	> 100	1.53	> 100	3.21	> 100	3.4	> 100	2.24	7.27	1.94	> 100
c1ccc(Nc2ncc(-c3ccccc3)o2)cc1	> 25	> 25	> 25	> 25	> 21.1	> 25	> 25	> 25	> 20.6	> 25	> 25	> 25	> 25	> 25	24	> 25	> 25	> 25	> 25	> 25
CC1(C)[C@@H](NOCCCN)CC[C@]2(C)[C@H]3C(=O)C=C4[C@@H]5C[C@](C)(C(=O)O)CC[C@]5(C)CC[C@@]4(C)[C@]3(C)CC[C@@H]12	10.3	29.1	3.42	22.4	8.69	34.8	17.8	67	2.27	6.89	7.87	21.2	3.59	13.1	1.89	4.16	5.3	26.6	10.6	69.4
CC(C)[C@@H]1NC(=O)[C@]2(C)CSC(=N2)c2ccnc(c2)CNC(=O)C[C@@H](/C=C/CCS)OC1=O	0.0623	0.322	1.73	6.91	1.41	> 100	0.0354	0.197	0.0641	> 100	2.46	14.9	0.173	0.869	0.513	> 100	0.0842	0.516	2.46	> 61.6
